In US10836764B2, “5-HT2C receptor agonists and compositions and methods of use” (Arena Pharmaceuticals, Inc., priority 2016, dated 2020):
Read-outs that look alike come from different tables or passages of the source.

Legend:
[1] = add on treatment, non-depressed patients with poorly controlled epilepsy; cited from earlier work
[2] = biological target: T1, 5-HT2B receptor (Homo sapiens (Human), UniProt P41595); experiment: IP accumulation assay, 5-HT2B; format: cell-based
Description: (§1) HEK293 cells expressing recombinant 5-HT2 receptors were added to sterile poly-D-lysine-coated 96-well microtiter plates (35,000 cells/well) and labeled with 0.6 μCi/well of [^3H]inositol in myoinositol-free DMEM for 18 h. Unincorporated [^3H]inositol was removed by aspiration and replaced with fresh myoinositol-free DMEM supplemented with LiCl (10 mM final) and pargyline (10 μM final). Serially diluted test compounds were then added and incubation was conducted for 2 h at 37° C. (5-HT2B, and 5-HT2A) and RT (5-HT2C). Incubations were then terminated by lysing cells with the addition of ice-cold 0.1 M formic acid followed by freezing at −80° C. After thawing, total [^3H]inositol phosphates were resolved from [^3H]inositol using AG1-X8 ion exchange resin (Bio-Rad) and [^3H]inositol phosphates were measured by scintillation counting using a Perkin Elmer TopCount® scintillation counter. All EC50 determinations were performed using 10 different concentrations and triplicate determinations were made at each test concentration.

[3] = biological target: T2, 5-HT2C receptor (Homo sapiens (Human), UniProt P28335); experiment: DOI radioligand binding assay, 5-HT2C
T2 sequence (P28335 33-458): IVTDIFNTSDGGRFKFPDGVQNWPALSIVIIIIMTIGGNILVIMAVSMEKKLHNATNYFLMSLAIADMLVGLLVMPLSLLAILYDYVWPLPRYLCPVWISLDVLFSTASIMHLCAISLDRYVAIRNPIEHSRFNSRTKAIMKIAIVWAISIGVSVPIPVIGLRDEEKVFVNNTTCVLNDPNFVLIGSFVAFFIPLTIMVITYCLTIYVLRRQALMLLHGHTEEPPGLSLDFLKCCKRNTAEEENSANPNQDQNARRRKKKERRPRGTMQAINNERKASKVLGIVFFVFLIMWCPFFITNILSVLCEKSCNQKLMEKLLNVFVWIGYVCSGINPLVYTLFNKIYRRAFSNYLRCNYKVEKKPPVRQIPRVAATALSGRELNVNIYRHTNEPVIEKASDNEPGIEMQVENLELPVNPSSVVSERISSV
Description: (§2) For the compounds of Table A, the following procedure was used. HEK293 cells stably expressing recombinant 5-HT2 receptors were harvested, suspended in ice-cold phosphate buffered saline, pH 7.4 (PBS), and then centrifuged at 48,000 g for 20 min at 4° C. The resulting cell pellet was then re-suspended in wash buffer containing 20 mM HEPES, pH 7.4 and 0.1 mM EDTA, homogenized on ice using a Brinkman Polytron, and centrifuged (48,000 g for 20 min at 4° C.). The pellet was then resuspended in 20 mM HEPES, pH 7.4, homogenized on ice, and centrifuged (48,000 g for 20 min at 4° C.). Crude membrane pellets were stored at −80° C. until used for radioligand binding assays.
(§3) For the compounds of Table A, the following procedure was used. […] Experiments comprised addition of 95 μL of assay buffer (20 mM HEPES, pH 7.4, 10 mM MgCl2), 50 μL of membranes, 50 μL of radioligand stock, and 5 μL of test compound diluted in assay buffer to 96-well microtiter plates, which were then incubated for 1 h at room temperature. Assay incubations were terminated by rapid filtration through PerkinElmer F/C filtration plates under reduced pressure using a 96-well Packard filtration apparatus, followed by washing three times with ice cold assay buffer. Plates were then dried at 45° C. for a minimum of 2 h. Finally, 25 μL of BetaScint™ scintillation cocktail was added to each well and the plates were counted in a Packard TopCount® scintillation counter. In each competition study, test compounds were dosed at ten concentrations with triplicate determinations at each test concentration.

[4] = biological target: T1, 5-HT2B receptor; experiment: DOI radioligand binding assay, 5-HT2B; conditions: [125I]DOI competition, HEK293 cell membranes
Description: as §2, §3

[5] = biological target: T2, 5-HT2C receptor; experiment: IP accumulation assay, 5-HT2C; format: cell-based
Description: as §1

[6] = 10 mg BID, type 2 diabetes; cited from earlier work
[7] = cited from earlier work
[8] = patients without diabetes, cited from earlier work
[9] = cited from earlier work; remark: listed apart in the source
[10] = Food intake in the male Sprague Dawley rat; format: in vivo; conditions: PO 1, 2 or 5 mg/kg, 1 hour following administration, relative to placebo
Description: Male Sprague Dawley rats (225-300 g) were housed three per cage in a temperature and humidity controlled environment (12 h:12 h light:dark cycle, lights on at 0600 h). At 1600 h on the day before the test, rats were placed in fresh cages and food was removed. On test day, rats were placed into individual cages with grid floors at 1000 h with no access to food. At 1130 h, rats (n=8) were administered either vehicle (20% hydroxypropyl-β-cyclodextrin) or test compound via oral gavage (PO, 1 mL/kg, with an amount of 1 mg/kg, 2 mg/kg or 5 mg/kg of test compound) 30 min prior to food presentation. Food intake was measured at 60 min after drug administration (30 min after food presentation).

[11] = pivotal phase 3 program, up to two years
[12] = patients with type 2 diabetes, BID
[13] = patients without type 2 diabetes

T1 sequence (P41595 whole entry): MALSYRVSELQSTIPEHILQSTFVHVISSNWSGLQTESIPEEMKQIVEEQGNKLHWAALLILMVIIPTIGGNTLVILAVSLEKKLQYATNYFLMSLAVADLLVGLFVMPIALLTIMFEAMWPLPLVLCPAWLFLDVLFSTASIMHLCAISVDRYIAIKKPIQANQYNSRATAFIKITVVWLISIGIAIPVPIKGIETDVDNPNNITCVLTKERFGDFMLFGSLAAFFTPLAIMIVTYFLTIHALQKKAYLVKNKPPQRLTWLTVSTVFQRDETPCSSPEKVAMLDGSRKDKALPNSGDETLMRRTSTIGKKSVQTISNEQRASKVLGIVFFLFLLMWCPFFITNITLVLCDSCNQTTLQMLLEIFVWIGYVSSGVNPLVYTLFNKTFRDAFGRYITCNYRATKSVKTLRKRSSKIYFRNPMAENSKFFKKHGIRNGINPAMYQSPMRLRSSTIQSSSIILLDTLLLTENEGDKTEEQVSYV

CN(C)CCCC1(c2ccc(F)cc2)OCc2cc(C#N)ccc21 (centres unmarked) [citalopram]
drop in median seizure frequency [1]: 55.6%

c1ccc(Cc2cncc3c2CC[C@@H]2CNCCN32)cc1 [Compound 175, (R)-4-benzyl-6,6a,7,8,9,10-hexahydro-5H-pyrazino[1,2-a][1,7]naphthyridine]
EC50 [2]: 19.9 µM | Ki [3]: 0.52 nM | Ki [4]: 270 nM | EC50 [5]: 0.622 nM

C[C@H]1CNCCc2ccc(Cl)cc21 [lorcaserin, (R)-8-chloro-1-methyl-2,3,4,5-tetrahydro-1H-3-benzazepine]
reduction in HbAlc [6]: 0.9% | risk of cardiac valvulopathy ([7]; phase 3 program): did not increase | patients achieved at least 5% weight loss [7, 11]: About two-thirds | patients achieved at least 10% weight loss [7, 11]: over one-third | average weight lost, of their weight ([7]; pivotal phase 3 program): about 8% | average weight loss, top quartile of patients ([7]; second phase 3 trial): 35 pounds | average weight loss, top quartile of patients, of body weight ([7]; second phase 3 trial): 16% | HOMA-IR change ([8]; one study): −0.4 | fasting insulin change ([8]; one study): −3.3 μIU/mL | mean fasting glucose change [8]: -0.2 mg/dL | patients who decreased total daily dose of medications for dyslipidemia [9, 12]: 5.5% | patients who increased use of medications for dyslipidemia [9, 12]: 3.1% | decrease in mean daily doses of sulfonylureas and thiazolidinediones ([9]; patients with type 2 diabetes): 16-24% | patients who decreased total daily dose of antihypertensive medications ([9]; patients with type 2 diabetes): 8.2% | patients who increased total daily dose of antihypertensive medications ([9]; patients with type 2 diabetes): 6.6% | patients who decreased total daily dose of antihypertensive medications [9, 13]: 2.2% | patients who decreased total daily dose of medications for dyslipidemia [9, 13]: 1.3% | patients who increased total daily dose of antihypertensive medications [9, 13]: 2.2% | patients who increased use of medications for dyslipidemia [9, 13]: 2.6%

CC(C)Cc1ccnc2c1CC[C@@H]1CNCCN21 [Compound 114, (R)-4-isobutyl-6,6a,7,8,9,10-hexahydro-5H-pyrazino[1,2-a][1,8]naphthyridine]
EC50 [2]: 0.351 µM | Ki [3]: 0.587 nM | Ki [4]: 33 nM | EC50 [5]: 0.424 nM

FC(F)(F)CCc1ccnc2c1CC[C@@H]1CNCCN21 [Compound 152, (R)-4-(3,3,3-trifluoropropyl)-6,6a,7,8,9,10-hexahydro-5H-pyrazino[1,2-a][1,8]naphthyridine]
cumulative food intake [10]: significantly decreased
